Experimental data as given in ChEMBL document CHEMBL3885861, “Open TG-GATES”.

Species: Rattus norvegicus
Test: Open TG-GATES - Regimen: Daily Repeat
Type: toxicity, organism-based, Sprague-Dawley
Design: regimen Daily Repeat, gender Male, age 6 weeks
Details: in vivo, po, route gavage; for APTT / Bas / Eos / Fbg / Hb / Ht / Lym / MCH / MCHC / MCV / Mono / Neu / PT / Plat / RBC / Ret / WBC: tissue Blood; for LIVER: tissue Liver; for A/G / ALP / ALT / AST / BUN / CRE / Ca / Cl / DBIL / GLC / IP / K / LDH / Na / PL / RALB / TBIL / TC / TG / TP / gamma-GTP: tissue Plasma
[1] = 15 mg/kg, 72 h, dose level Middle, time 3 day
[2] = 15 mg/kg, […], dose level Middle, time 7 day
[3] = 15 mg/kg, […], dose level Middle, time 14 day
[4] = 15 mg/kg, […], dose level Middle, time 28 day
[5] = 50 mg/kg, 72 h, dose level High, time 3 day
[6] = 50 mg/kg, […], dose level High, time 7 day
[7] = 50 mg/kg, […], dose level High, time 14 day
[8] = 50 mg/kg, […], dose level High, time 28 day

## C=C(C)[C@H]1Cc2c(ccc3c2O[C@@H]2COc4cc(OC)c(OC)cc4[C@@H]2C3=O)O1 [ROTENONE]
[1]
  TERMINAL_BW: 217.2 g
  APTT: 15.9 s
  Bas: 0%
  Eos: 1%
  Fbg: 211.8 mg/dL
  Hb: 13.1 g/dL
  Ht: 40.2%
  Lym: 71%
  MCH: 20.9 pg
  MCHC: 32.7%
  MCV: 63.9 fL
  Mono: 7.8%
  Neu: 20.4%
  PT: 11.8 s
  Plat: 122 x10_4/uL
  RBC: 628.8 x10_4/ul
  Ret: 6.1%
  WBC: 99.8 x10_2/uL
  LIVER: 10.7 g
  A/G: 2.2
  ALP: 1449.2 IU/L
  ALT: 37.8 IU/L
  AST: 70.6 IU/L
  BUN: 17 mg/dL
  CRE: 0.4 mg/dL
  Ca: 11.8 mg/dL
  Cl: 104.2 meq/L
  DBIL: 0.014 mg/dL
  GLC: 188.4 mg/dL
  IP: 7.3 mg/dL
  K: 4.3 meq/L
  LDH: 117 IU/L
  Na: 141.8 meq/L
  PL: 149.8 mg/dL
  RALB: 3.7 g/dL
  TBIL: 0.038 mg/dL
  TC: 79.2 mg/dL
  TG: 104.8 mg/dL
  TP: 5.5 g/dL
  gamma-GTP: 0.6 IU/L
[2]
  TERMINAL_BW: 254.3 g
  APTT: 17 s
  Bas: 0%
  Eos: 1%
  Fbg: 237.8 mg/dL
  Hb: 13.3 g/dL
  Ht: 40.4%
  Lym: 74.2%
  MCH: 20.6 pg
  MCHC: 32.8%
  MCV: 62.9 fL
  Mono: 5.8%
  Neu: 19.2%
  PT: 11.4 s
  Plat: 140.2 x10_4/uL
  RBC: 643.4 x10_4/ul
  Ret: 5%
  WBC: 113.4 x10_2/uL
  LIVER: 13 g
  A/G: 2.2
  ALP: 1376.6 IU/L
  ALT: 35.4 IU/L
  AST: 67 IU/L
  BUN: 17.2 mg/dL
  CRE: 0.4 mg/dL
  Ca: 11.5 mg/dL
  Cl: 103.2 meq/L
  DBIL: 0.016 mg/dL
  GLC: 198.6 mg/dL
  IP: 7.4 mg/dL
  K: 4.3 meq/L
  LDH: 110.8 IU/L
  Na: 140.4 meq/L
  PL: 150.6 mg/dL
  RALB: 3.8 g/dL
  TBIL: 0.036 mg/dL
  TC: 82.4 mg/dL
  TG: 105.2 mg/dL
  TP: 5.6 g/dL
  gamma-GTP: 1 IU/L
[3]
  TERMINAL_BW: 305.1 g
  APTT: 15.6 s
  Bas: 0%
  Eos: 1%
  Fbg: 240.8 mg/dL
  Hb: 13.8 g/dL
  Ht: 41.7%
  Lym: 75.2%
  MCH: 20.6 pg
  MCHC: 33%
  MCV: 62.3 fL
  Mono: 3.8%
  Neu: 20.2%
  PT: 11.5 s
  Plat: 130 x10_4/uL
  RBC: 670.4 x10_4/ul
  Ret: 3.8%
  WBC: 127.2 x10_2/uL
  LIVER: 14.1 g
  A/G: 2.1
  ALP: 1261.6 IU/L
  ALT: 36.2 IU/L
  AST: 68.4 IU/L
  BUN: 18.4 mg/dL
  CRE: 0.4 mg/dL
  Ca: 11.6 mg/dL
  Cl: 105 meq/L
  DBIL: 0.01 mg/dL
  GLC: 188.6 mg/dL
  IP: 6.9 mg/dL
  K: 4.4 meq/L
  LDH: 103.6 IU/L
  Na: 139.6 meq/L
  PL: 140 mg/dL
  RALB: 3.9 g/dL
  TBIL: 0.028 mg/dL
  TC: 77.4 mg/dL
  TG: 95.2 mg/dL
  TP: 5.7 g/dL
  gamma-GTP: 1 IU/L
[4]
  TERMINAL_BW: 389.3 g
  APTT: 18 s
  Bas: 0%
  Eos: 1.2%
  Fbg: 196.8 mg/dL
  Hb: 14.9 g/dL
  Ht: 45.4%
  Lym: 77.8%
  MCH: 18.9 pg
  MCHC: 32.8%
  MCV: 57.7 fL
  Mono: 5%
  Neu: 16.2%
  PT: 12.5 s
  Plat: 126.2 x10_4/uL
  RBC: 786 x10_4/ul
  Ret: 1.8%
  WBC: 111.5 x10_2/uL
  LIVER: 17.3 g
  A/G: 2
  ALP: 1146.8 IU/L
  ALT: 29.2 IU/L
  AST: 62 IU/L
  BUN: 19.5 mg/dL
  CRE: 0.4 mg/dL
  Ca: 10.9 mg/dL
  Cl: 105.2 meq/L
  DBIL: 0.01 mg/dL
  GLC: 186 mg/dL
  IP: 5.7 mg/dL
  K: 4.5 meq/L
  LDH: 124.8 IU/L
  Na: 141 meq/L
  PL: 150.8 mg/dL
  RALB: 3.9 g/dL
  TBIL: 0.0325 mg/dL
  TC: 68.5 mg/dL
  TG: 180.2 mg/dL
  TP: 5.9 g/dL
  gamma-GTP: 1 IU/L
[5]
  TERMINAL_BW: 199.2 g
  APTT: 16.3 s
  Bas: 0%
  Eos: 0.8%
  Fbg: 198.6 mg/dL
  Hb: 13.7 g/dL
  Ht: 41.6%
  Lym: 72.4%
  MCH: 21 pg
  MCHC: 32.9%
  MCV: 64 fL
  Mono: 8%
  Neu: 18.8%
  PT: 12.2 s
  Plat: 126.4 x10_4/uL
  RBC: 649.4 x10_4/ul
  Ret: 3.3%
  WBC: 91.2 x10_2/uL
  LIVER: 9.9 g
  A/G: 2.4
  ALP: 1100.4 IU/L
  ALT: 25.4 IU/L
  AST: 65.4 IU/L
  BUN: 16 mg/dL
  CRE: 0.4 mg/dL
  Ca: 11.8 mg/dL
  Cl: 106.6 meq/L
  DBIL: 0.01 mg/dL
  GLC: 191.2 mg/dL
  IP: 7.5 mg/dL
  K: 4.2 meq/L
  LDH: 93.8 IU/L
  Na: 142.8 meq/L
  PL: 136.4 mg/dL
  RALB: 3.9 g/dL
  TBIL: 0.034 mg/dL
  TC: 82.6 mg/dL
  TG: 52.6 mg/dL
  TP: 5.5 g/dL
  gamma-GTP: 0.8 IU/L
[6]
  TERMINAL_BW: 230.8 g
  APTT: 16.5 s
  Bas: 0%
  Eos: 0.6%
  Fbg: 196.4 mg/dL
  Hb: 13.5 g/dL
  Ht: 41.1%
  Lym: 74.8%
  MCH: 21 pg
  MCHC: 32.9%
  MCV: 63.9 fL
  Mono: 6%
  Neu: 18.6%
  PT: 12 s
  Plat: 117.6 x10_4/uL
  RBC: 643.6 x10_4/ul
  Ret: 4.2%
  WBC: 95.8 x10_2/uL
  LIVER: 12.9 g
  A/G: 2.2
  ALP: 1181.6 IU/L
  ALT: 26.2 IU/L
  AST: 65.8 IU/L
  BUN: 18 mg/dL
  CRE: 0.4 mg/dL
  Ca: 11.7 mg/dL
  Cl: 104 meq/L
  DBIL: 0.014 mg/dL
  GLC: 198.6 mg/dL
  IP: 6.4 mg/dL
  K: 4.2 meq/L
  LDH: 103.6 IU/L
  Na: 141 meq/L
  PL: 137.4 mg/dL
  RALB: 4 g/dL
  TBIL: 0.022 mg/dL
  TC: 73 mg/dL
  TG: 80 mg/dL
  TP: 5.8 g/dL
  gamma-GTP: 0.8 IU/L
[7]
  TERMINAL_BW: 251.7 g
  APTT: 16.5 s
  Bas: 0%
  Eos: 0.8%
  Fbg: 190.2 mg/dL
  Hb: 14.7 g/dL
  Ht: 44.3%
  Lym: 69.4%
  MCH: 20 pg
  MCHC: 33.1%
  MCV: 60.5 fL
  Mono: 7.4%
  Neu: 22.4%
  PT: 12.6 s
  Plat: 128.2 x10_4/uL
  RBC: 733.8 x10_4/ul
  Ret: 3.6%
  WBC: 98.4 x10_2/uL
  LIVER: 13.1 g
  A/G: 2.4
  ALP: 1140.4 IU/L
  ALT: 43.2 IU/L
  AST: 101.8 IU/L
  BUN: 22.4 mg/dL
  CRE: 0.4 mg/dL
  Ca: 11.5 mg/dL
  Cl: 105.2 meq/L
  DBIL: 0.014 mg/dL
  GLC: 178.8 mg/dL
  IP: 7.4 mg/dL
  K: 4.3 meq/L
  LDH: 108.4 IU/L
  Na: 140.6 meq/L
  PL: 145.8 mg/dL
  RALB: 3.9 g/dL
  TBIL: 0.032 mg/dL
  TC: 68.4 mg/dL
  TG: 121.2 mg/dL
  TP: 5.6 g/dL
  gamma-GTP: 1 IU/L
[8]
  TERMINAL_BW: 288.8 g
  APTT: 19.4 s
  Bas: 0%
  Eos: 0.6%
  Fbg: 163.2 mg/dL
  Hb: 16 g/dL
  Ht: 48.6%
  Lym: 80%
  MCH: 18.8 pg
  MCHC: 33%
  MCV: 56.9 fL
  Mono: 4.2%
  Neu: 15%
  PT: 14.2 s
  Plat: 117.8 x10_4/uL
  RBC: 859 x10_4/ul
  Ret: 1.5%
  WBC: 88.4 x10_2/uL
  LIVER: 12 g
  A/G: 2.2
  ALP: 639.6 IU/L
  ALT: 20.2 IU/L
  AST: 53 IU/L
  BUN: 20.8 mg/dL
  CRE: 0.4 mg/dL
  Ca: 10.6 mg/dL
  Cl: 107 meq/L
  DBIL: 0.01 mg/dL
  GLC: 188.2 mg/dL
  IP: 5.9 mg/dL
  K: 4.4 meq/L
  LDH: 79 IU/L
  Na: 142.8 meq/L
  PL: 122.4 mg/dL
  RALB: 3.9 g/dL
  TBIL: 0.038 mg/dL
  TC: 67.6 mg/dL
  TG: 65.2 mg/dL
  TP: 5.8 g/dL
  gamma-GTP: 1 IU/L
